Source: patent US11208412B2 (DAEGU-GYEONGBUK MEDICAL INNOVATION FOUNDATION, priority 2017, dated 2021)

Key:
Assay in all cases: Kinase selectivity, DiscoverX scanMAX Kinase assay panel (% control)
Assay type in all cases: binding
[1] = biological target: T1, kinases of the scanMAX Kinase assay panel (Homo sapiens, UniProt Q86UE8); conditions: kinase TLK2; 1 uM in DMSO
T1 construct: purchased DiscoverX Co. (contract measurement) scanMAX Kinase assay panel
Summary of the method: (§1)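 Percent of control computed as (compound − positive control)/(negative control − positive control) × 100, DMSO defining 100% and positive control 0%. Each panel kinase exposed to 1 uM compound; values under 35% taken to mean the compound acts on that kinase.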

[2] = biological target: T2, kinases of the scanMAX Kinase assay panel (Homo sapiens, UniProt Q13188); conditions: MST2; 1 uM
T2 construct: purchased DiscoverX Co. (contract measurement) scanMAX Kinase assay panel
T2 sequence (Q13188 1-491): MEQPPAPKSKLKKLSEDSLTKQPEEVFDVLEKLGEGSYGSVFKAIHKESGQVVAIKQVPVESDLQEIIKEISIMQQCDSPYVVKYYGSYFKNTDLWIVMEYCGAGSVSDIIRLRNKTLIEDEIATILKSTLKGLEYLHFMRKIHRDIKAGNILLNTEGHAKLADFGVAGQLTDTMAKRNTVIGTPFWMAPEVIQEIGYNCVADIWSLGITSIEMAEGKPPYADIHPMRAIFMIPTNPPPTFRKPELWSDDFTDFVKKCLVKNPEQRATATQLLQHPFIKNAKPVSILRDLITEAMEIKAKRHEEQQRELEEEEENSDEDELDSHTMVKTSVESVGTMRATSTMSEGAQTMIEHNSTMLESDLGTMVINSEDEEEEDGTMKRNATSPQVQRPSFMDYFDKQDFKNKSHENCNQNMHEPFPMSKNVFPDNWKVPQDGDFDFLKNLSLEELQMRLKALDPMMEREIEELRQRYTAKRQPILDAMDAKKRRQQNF
Summary of the method: as §1

[3] = biological target: T3, kinases of the scanMAX Kinase assay panel (Homo sapiens, UniProt P36894); conditions: BMPR1A; 1 uM
T3 construct: purchased DiscoverX Co. (contract measurement) scanMAX Kinase assay panel
Summary of the method: as §1

[4] = biological target: T4, kinases of the scanMAX Kinase assay panel (Homo sapiens, UniProt P53667); conditions: LIMK1; 1 uM
T4 construct: purchased DiscoverX Co. (contract measurement) scanMAX Kinase assay panel
Summary of the method: as §1

[5] = biological target: T5, kinases of the scanMAX Kinase assay panel (Homo sapiens, UniProt Q92918); conditions: HPK1; 1 uM
T5 construct: purchased DiscoverX Co. (contract measurement) scanMAX Kinase assay panel
Summary of the method: as §1

[6] = biological target: T6, kinases of the scanMAX Kinase assay panel (Homo sapiens, UniProt Q8IVW4); conditions: CDKL3; 1 uM
T6 construct: purchased DiscoverX Co. (contract measurement) scanMAX Kinase assay panel
Summary of the method: as §1

[7] = biological target: T7, kinases of the scanMAX Kinase assay panel (Homo sapiens, UniProt P06213); conditions: INSR; 1 uM
T7 construct: purchased DiscoverX Co. (contract measurement) scanMAX Kinase assay panel
Summary of the method: as §1

[8] = biological target: T8, kinases of the scanMAX Kinase assay panel (Homo sapiens, UniProt O43353); conditions: kinase RIPK2; 1 uM in DMSO
T8 construct: purchased DiscoverX Co. (contract measurement) scanMAX Kinase assay panel
Summary of the method: as §1

[9] = biological target: T9, kinases of the scanMAX Kinase assay panel (Homo sapiens, UniProt Q8IW41); conditions: MAPKAPK5; 1 uM
T9 construct: purchased DiscoverX Co. (contract measurement) scanMAX Kinase assay panel
T9 sequence (Q8IW41 1-473): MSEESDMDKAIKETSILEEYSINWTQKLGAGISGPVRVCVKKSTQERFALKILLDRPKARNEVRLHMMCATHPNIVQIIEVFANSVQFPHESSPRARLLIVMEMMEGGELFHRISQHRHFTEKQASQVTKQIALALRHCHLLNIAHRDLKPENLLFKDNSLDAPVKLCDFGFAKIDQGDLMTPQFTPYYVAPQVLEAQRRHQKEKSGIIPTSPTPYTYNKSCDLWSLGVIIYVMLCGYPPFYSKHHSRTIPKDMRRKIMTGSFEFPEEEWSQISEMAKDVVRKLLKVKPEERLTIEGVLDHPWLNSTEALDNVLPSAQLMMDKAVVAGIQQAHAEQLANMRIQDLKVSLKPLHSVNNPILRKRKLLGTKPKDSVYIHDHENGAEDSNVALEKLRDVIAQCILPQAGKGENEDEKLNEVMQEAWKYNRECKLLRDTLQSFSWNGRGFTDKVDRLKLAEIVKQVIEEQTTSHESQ
Summary of the method: as §1

[10] = biological target: T10, kinases of the scanMAX Kinase assay panel (Homo sapiens, UniProt P10721, V559D/V654A); conditions: KIT(V559D, V654A); 1 uM
T10 construct: purchased DiscoverX Co. (contract measurement) scanMAX Kinase assay panel
Summary of the method: as §1

[11] = biological target: T11, kinases of the scanMAX Kinase assay panel (Homo sapiens, UniProt Q15375); conditions: EPHA7; 1 uM
T11 construct: purchased DiscoverX Co. (contract measurement) scanMAX Kinase assay panel
Summary of the method: as §1

[12] = biological target: T12, kinases of the scanMAX Kinase assay panel (Homo sapiens, UniProt P51817); conditions: PRKX; 1 uM
T12 construct: purchased DiscoverX Co. (contract measurement) scanMAX Kinase assay panel
T12 sequence (P51817 1-358): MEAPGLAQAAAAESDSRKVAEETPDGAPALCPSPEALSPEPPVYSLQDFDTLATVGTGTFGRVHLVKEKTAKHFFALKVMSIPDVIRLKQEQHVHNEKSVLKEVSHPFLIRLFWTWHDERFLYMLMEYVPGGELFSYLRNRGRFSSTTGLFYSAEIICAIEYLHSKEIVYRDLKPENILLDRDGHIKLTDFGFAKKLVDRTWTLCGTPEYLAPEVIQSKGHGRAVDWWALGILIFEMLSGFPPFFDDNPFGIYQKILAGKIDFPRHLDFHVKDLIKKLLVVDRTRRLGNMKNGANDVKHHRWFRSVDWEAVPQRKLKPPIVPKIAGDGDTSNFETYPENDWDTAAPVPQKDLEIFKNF
Summary of the method: as §1

[13] = biological target: T13, kinases of the scanMAX Kinase assay panel (Homo sapiens, UniProt Q15746); conditions: MYLK; 1 uM
T13 construct: purchased DiscoverX Co. (contract measurement) scanMAX Kinase assay panel
Summary of the method: as §1

T11 sequence (Q15375 28-998): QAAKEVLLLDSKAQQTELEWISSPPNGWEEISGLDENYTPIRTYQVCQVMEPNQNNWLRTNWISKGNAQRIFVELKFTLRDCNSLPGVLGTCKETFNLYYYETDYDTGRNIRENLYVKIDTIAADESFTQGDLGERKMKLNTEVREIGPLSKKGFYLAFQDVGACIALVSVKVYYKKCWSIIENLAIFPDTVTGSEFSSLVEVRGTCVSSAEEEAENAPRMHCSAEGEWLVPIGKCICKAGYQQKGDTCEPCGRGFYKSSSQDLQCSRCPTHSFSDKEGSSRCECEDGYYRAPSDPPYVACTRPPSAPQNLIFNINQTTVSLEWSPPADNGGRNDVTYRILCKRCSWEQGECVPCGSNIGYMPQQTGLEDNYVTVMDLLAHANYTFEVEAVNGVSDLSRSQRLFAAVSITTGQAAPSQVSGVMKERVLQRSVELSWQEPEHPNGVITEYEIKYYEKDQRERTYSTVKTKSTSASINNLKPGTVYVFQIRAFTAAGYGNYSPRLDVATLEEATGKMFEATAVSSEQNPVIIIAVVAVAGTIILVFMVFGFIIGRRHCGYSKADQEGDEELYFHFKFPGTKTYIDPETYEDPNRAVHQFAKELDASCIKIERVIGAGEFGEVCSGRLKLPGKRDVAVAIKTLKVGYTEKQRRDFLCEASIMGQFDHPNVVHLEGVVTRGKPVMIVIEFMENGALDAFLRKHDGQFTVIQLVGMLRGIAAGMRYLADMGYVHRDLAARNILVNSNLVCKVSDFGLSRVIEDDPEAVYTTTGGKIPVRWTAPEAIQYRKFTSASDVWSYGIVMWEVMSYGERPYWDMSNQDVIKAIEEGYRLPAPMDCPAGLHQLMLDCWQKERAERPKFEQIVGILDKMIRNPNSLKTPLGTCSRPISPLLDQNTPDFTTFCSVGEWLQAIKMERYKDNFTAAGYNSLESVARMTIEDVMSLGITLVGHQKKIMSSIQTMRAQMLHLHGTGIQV
T1 sequence (Q86UE8 whole entry): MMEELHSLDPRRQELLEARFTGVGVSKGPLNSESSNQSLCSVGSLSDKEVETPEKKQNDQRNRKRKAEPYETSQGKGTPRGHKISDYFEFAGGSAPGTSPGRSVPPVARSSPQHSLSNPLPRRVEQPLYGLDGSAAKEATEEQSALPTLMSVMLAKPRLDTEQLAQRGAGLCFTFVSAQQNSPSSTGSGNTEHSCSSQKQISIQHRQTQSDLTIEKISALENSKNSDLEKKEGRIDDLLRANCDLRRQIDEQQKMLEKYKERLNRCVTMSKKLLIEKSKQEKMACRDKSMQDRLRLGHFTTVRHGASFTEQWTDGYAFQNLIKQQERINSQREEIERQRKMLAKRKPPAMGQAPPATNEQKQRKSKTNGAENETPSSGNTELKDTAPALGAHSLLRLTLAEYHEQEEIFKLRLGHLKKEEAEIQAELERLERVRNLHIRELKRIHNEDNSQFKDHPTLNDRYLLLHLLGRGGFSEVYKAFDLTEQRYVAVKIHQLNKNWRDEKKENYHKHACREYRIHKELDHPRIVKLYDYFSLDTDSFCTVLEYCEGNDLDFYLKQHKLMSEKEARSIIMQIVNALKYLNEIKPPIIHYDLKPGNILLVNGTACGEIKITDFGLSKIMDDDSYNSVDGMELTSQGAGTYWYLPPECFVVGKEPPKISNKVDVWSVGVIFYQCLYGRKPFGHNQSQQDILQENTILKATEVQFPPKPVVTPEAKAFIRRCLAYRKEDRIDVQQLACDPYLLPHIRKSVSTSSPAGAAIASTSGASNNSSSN
T13 sequence (Q15746 whole entry): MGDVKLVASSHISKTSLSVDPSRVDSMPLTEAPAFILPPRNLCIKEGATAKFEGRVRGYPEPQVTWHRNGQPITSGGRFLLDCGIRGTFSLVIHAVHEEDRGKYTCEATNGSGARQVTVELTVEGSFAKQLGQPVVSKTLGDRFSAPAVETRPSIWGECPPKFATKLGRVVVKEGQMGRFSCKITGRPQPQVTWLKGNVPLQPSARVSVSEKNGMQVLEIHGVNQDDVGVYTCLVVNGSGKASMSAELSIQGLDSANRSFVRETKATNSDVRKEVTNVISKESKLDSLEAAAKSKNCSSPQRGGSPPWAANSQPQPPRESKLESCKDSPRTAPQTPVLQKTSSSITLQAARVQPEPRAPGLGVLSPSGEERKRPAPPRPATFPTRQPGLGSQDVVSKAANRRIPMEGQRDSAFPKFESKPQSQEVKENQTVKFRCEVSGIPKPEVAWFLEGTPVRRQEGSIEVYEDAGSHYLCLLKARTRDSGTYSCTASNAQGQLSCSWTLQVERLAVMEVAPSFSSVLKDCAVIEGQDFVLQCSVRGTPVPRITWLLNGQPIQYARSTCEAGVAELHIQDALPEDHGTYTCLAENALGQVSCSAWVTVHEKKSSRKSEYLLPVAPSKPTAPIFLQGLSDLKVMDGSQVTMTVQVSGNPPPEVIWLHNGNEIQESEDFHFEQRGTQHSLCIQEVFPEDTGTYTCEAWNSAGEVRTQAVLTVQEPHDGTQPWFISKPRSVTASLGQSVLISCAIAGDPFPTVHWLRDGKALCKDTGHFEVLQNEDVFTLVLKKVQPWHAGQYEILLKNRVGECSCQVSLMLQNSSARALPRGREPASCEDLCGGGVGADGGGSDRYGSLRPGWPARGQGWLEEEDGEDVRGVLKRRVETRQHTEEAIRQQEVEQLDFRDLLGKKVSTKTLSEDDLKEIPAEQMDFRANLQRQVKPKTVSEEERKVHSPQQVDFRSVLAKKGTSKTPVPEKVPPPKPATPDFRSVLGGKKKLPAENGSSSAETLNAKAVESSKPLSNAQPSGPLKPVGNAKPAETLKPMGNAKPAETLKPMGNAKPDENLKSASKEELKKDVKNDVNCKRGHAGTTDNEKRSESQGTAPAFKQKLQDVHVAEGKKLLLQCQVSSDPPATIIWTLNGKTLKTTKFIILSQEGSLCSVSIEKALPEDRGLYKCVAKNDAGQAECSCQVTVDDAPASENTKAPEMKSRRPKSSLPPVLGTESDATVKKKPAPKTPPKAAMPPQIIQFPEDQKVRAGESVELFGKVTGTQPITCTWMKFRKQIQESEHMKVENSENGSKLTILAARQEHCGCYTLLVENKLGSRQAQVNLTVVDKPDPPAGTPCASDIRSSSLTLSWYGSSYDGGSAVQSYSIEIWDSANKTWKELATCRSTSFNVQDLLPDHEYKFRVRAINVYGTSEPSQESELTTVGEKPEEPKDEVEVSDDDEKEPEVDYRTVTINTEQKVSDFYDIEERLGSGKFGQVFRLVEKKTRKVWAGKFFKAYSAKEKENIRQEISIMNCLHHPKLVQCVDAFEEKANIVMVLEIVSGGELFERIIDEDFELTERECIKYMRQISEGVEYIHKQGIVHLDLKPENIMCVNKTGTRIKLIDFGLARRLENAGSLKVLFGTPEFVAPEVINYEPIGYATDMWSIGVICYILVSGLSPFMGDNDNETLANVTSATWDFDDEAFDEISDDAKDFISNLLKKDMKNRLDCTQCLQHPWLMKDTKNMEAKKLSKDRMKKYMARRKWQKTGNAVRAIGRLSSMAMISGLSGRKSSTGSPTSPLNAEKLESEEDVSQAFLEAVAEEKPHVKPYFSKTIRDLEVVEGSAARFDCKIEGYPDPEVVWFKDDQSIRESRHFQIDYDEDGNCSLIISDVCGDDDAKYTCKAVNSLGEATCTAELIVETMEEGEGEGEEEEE
T5 sequence (Q92918 whole entry): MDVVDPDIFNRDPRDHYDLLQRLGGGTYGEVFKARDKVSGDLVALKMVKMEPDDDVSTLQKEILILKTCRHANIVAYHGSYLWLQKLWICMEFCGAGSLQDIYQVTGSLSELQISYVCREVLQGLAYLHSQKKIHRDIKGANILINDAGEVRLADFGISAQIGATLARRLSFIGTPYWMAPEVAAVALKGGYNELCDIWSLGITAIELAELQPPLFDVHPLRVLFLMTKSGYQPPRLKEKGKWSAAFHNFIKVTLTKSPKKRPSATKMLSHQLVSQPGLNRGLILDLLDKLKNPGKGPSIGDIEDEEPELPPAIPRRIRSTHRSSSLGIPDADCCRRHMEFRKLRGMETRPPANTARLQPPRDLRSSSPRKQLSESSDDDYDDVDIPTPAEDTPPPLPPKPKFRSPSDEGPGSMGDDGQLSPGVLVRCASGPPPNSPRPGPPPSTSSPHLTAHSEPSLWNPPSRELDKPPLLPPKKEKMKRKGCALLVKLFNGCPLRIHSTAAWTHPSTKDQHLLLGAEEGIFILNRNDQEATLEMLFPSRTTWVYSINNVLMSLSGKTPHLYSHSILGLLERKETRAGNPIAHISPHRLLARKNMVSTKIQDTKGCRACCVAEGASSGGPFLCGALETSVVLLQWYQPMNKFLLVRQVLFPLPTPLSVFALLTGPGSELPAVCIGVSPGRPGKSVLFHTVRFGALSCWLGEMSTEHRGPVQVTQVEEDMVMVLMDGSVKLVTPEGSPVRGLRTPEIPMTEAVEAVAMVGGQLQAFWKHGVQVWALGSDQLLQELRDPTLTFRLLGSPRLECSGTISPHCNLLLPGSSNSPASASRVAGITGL
T3 sequence (P36894 24-532): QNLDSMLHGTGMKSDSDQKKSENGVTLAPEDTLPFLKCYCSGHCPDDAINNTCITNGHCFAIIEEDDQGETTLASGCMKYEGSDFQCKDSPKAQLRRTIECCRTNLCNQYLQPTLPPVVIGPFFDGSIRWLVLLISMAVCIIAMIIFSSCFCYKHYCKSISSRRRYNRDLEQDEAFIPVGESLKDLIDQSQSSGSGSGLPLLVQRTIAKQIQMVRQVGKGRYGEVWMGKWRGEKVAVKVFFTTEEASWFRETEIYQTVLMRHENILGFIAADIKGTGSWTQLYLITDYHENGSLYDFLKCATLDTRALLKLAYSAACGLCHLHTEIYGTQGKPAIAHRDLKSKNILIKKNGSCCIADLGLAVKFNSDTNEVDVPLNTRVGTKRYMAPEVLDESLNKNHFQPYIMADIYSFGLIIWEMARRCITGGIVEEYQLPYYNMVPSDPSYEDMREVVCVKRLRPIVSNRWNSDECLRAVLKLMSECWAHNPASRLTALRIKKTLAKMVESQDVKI

Row | SMILES | remaining binding at 1 µM [1] | remaining binding at 1 µM [2] | remaining binding at 1 µM [3] | remaining binding at 1 µM [4] | remaining binding at 1 µM [5] | remaining binding at 1 µM [6] | remaining binding at 1 µM [7] | remaining binding at 1 µM [8] | remaining binding at 1 µM [9] | remaining binding at 1 µM [10] | remaining binding at 1 µM [11] | remaining binding at 1 µM [12] | remaining binding at 1 µM [13]
1 | CCNc1nc(Nc2ccc(C(=O)N3CCC(N4CCOCC4)CC3)cc2OC)nc2[nH]cc(C(F)(F)F)c12 [Example 104, (4-((4-(ethylamino)-5-(trifluoromethyl)-7H-pyrrolo[2,3-d]pyrimidine-2-yl)amino)-3-methoxyphenyl)(4-morpholinopiperidine-1-yl)methanone] | 93% | 71% | 100% | 100% | 100% | 100% | 7.1% | 100% | 51% | 94% | 94% | 81% | 0.95%
2 | CC1(Nc2nc(Nc3cnn([C@H]4CCN(C5COC5)C[C@@H]4F)c3Cl)nc3[nH]cc(C#N)c23)CC1 [Example 52, 2-((5-chloro-1-((3S,4S)-3-fluoro-1-(oxetane-3-yl)piperidine-4-yl)-1H-pyrazole-4-yl)amino)((1-methylcyclopropyl)amino)-7H-pyrrolo[2,3-d]pyrimidine-5-carbonitrile] | 42% | 15% | 100% | 98% | 4.3% | 100% | 0.35% | 61% | 72% | 0.9% | 20% | 89% | 0.55%
3 | CNc1nc(Nc2ccc(C(=O)N3CCOCC3)cc2OC)nc2[nH]cc(C#N)c12 [Example 1, 2-((2-methoxy-4-(morpholine-4-carbonyl)phenyl)amino)-4-(methylamino)-7H-pyrrolo[2,3-d]pyrimidine-5-carbonitrile] | 95% | 92% | 94% | 100% | 79% | 93% | 48% | 100% | 16% | 76% | 97% | 82% | 0%
